Experiments:
NR1H3 [1] = biological target: T1, NR1H3 (Homo sapiens, UniProt Q13133); assay: Alkaline phosphatase (AP) assay in MPCs infected with Ad-NR1H3 and treated with ligand; assay type: cell-based
T1 construct: amplification of the complete open reading frame from ATG start codon to the stop codon of drugable genes; expressed in transfected cells; host or cells: primary human bone-marrow mesenchymal progenitor cells (MPCs), adenoviral transduction (Ad5-NR1H3 with Ad-hCAR)
T1 sequence (Q13133 1-447): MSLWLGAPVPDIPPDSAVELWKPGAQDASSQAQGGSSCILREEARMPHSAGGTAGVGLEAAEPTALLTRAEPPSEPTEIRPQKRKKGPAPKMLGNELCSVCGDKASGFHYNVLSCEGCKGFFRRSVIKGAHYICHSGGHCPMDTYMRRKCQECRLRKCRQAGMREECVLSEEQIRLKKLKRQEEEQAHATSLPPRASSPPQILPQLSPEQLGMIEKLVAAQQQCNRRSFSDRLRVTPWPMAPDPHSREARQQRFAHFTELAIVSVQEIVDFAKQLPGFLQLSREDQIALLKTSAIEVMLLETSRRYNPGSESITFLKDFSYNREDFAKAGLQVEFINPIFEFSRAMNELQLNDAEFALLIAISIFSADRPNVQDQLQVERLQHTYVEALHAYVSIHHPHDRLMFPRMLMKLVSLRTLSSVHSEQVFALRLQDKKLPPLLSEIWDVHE
Method: Cellular AP activity is determined 6 days after the infection (or ligand addition—see below). The principle of the assays is depicted in FIG. 2. Mesenchymal stem cells derived from bone marrow are infected with the FLeXSelect™ cDNA library viruses in the presence of Ad5C15-hCAR or Ad5C20-hCAR virus. Six days after the start of infection or treatment with a ligand, endogenous alkaline phosphatase activity is measured following addition of 4-methylumbelliferyl […] (MUP) substrate.
The stocks of the Ad-control-viruses are generated in 96 well plates (control plate). The 2 μl volume corresponds to a theoretical MOI of 5000. Controls are: P1=Ad-BMP2; P2=Ad-H4-2; P3=Ad-H4-291; N1=Ad-LacZ; N2=Ad-empty; N3=Ad-eGFP. Up-regulation of alkaline phosphatase is read at 6 days post infection (6 dpi): 15 μl 4-Methylumbelliferyl-phosphate (MUP, Sigma) is added to each well, the plates are incubated for 15 min at 37° C. and monitored for AP activity using a fluorescence plate reader (Fluostar, BMG).
These dose-response curves are depicted in FIG. 5. […] MPCs are seeded on day 0 at 1000 cells per well of a 384 well plate and co-infected the next day using AdC51-hCAR (MOI 250) and different MOIs of Ad5-NR1H3 (MOI 12000, 4000, 1333, 444).
After 6 days, medium is removed and replaced with fresh medium containing the same concentrations of the compound GW3965. Readouts of AP activity are performed at several time points after the start of the experiment, typically after 7, 10 and 13 days.
After 6 days, medium is removed and replaced with fresh medium containing the same concentrations of the compound APD.

NR1H3 [2] = biological target: T1, NR1H3; assay: Osteogenic marker mRNA levels in MPCs, Ad-NR1H3+T0901317 (rtRT-PCR); assay type: cell-based; conditions: Ad-NR1H3+T0901317 (1 μM); up-regulated = 4-fold higher than Ad-eGFP or Ad-luciferase; one or more time points
Method: 100,000 MPCs are seeded in each well of a 6 well plate in 2 ml MPC medium, containing 10% FCS. The next day, after incubation at 37° C., 10% CO2 in a humidified incubator, cells are co-infected with AdC15-hCAR (final MOI of 750) and Ad-NR5A2, Ad-NR1H3+T0901317 (1 μM) or Ad-BMP2 (positive control) or Ad-eGFP or Ad-luciferase as negative controls (final MOIs of 1250 and 2500). Cells are incubated at 37° C., 10% CO2 in a humidified incubator for a further six days unless cells are already harvested for RNA isolation. Virus is removed and replaced by 2 ml fresh OS medium (proprietary medium containing 10% FCS). Over the next 3 weeks, medium is refreshed 3 times per 2 weeks. Every other time, medium is refreshed half or completely. Monolayers are harvested at several time points (see FIG. 15), total RNA is harvested and quantified and rtRT-PCRs are run as follows: monolayers are washed with ice cold PBS and harvested by adding SV RNA Lysis Buffer. Total RNA is prepared using the SV Total RNA isolation System (Promega, Cat # Z3100). RNA concentration is measured with the Ribogreen RNA Quantification kit (Molecular Probes, Leiden, The Netherlands, Cat No. R-11490). cDNA synthesis is performed using 20 ng total RNA per reaction using the TaqMan Universal PCR Master Mix, No AmpErase UNG, kit (Applied Biosystems, Warrington, UK, Part number 4324018). For each reverse transcriptase (RT) reaction a minus-RT reaction (negative control: no enzyme included in the reaction) is performed. The real-time reverse transcriptase (rtRT)-PCR reaction is performed with gene specific primers on both cDNA and minus-RT samples, using the SYBR Green PCR Master Mix (Applied Biosystems, Warrington, UK, Part number 4309155). Primers are quality controlled by performing PCR reactions on human genomic DNA and on plasmids containing the cDNA encoded by the gene studied if available. If the quality is unsatisfactory, additional primers are designed or validated primer sets are purchased (ABI). For the normalization of the expression levels a RT-PCR reaction is performed on human P-actin using the Human P-actin kit (Applied Biosystems, Warrington, UK, Part number 4310881E). The following program is run on a real-time PCR apparatus (ABI PRISM 7000 Sequence Detection System): 10 min at 25° C., 30 min at 48° C., 5 min at 95° C.
Expression levels for osteogenic marker genes are first normalized for beta-actin levels. The resulting data for Ad-BMP2, Ad-NR5A2 and Ad-NR1H3+T0901317 (1 μM) samples are then compared to those of Ad-eGFP or Ad-luciferase negative control samples, harvested at the same time points, for cells infected at the same MOI.

induction of AP activity in MPC isolates from 4 different donors (NR1H3 [1]; Ad-NR1H3 MOI 2500 + T0901317 at different concentrations, 6 days): induce AP activity to similar extents | up-regulation of endogenous alkaline phosphatase (AP) activity (NR1H3 [1]; MPCs infected with Ad-NR1H3, increasing ligand concentrations, MUP fluorescence readout): dose-dependently increase | BAP mRNA expression (NR1H3 [2]): up-regulated | PTHR1 mRNA expression (NR1H3 [2]): up-regulated | RANKL mRNA expression (NR1H3 [2]): up-regulated | aromatase mRNA expression (NR1H3 [2]): up-regulated | osteopontin mRNA expression (NR1H3 [2]): up-regulated
Structure (SMILES): O=S(=O)(c1ccccc1)N(CC(F)(F)F)c1ccc(C(O)(C(F)(F)F)C(F)(F)F)cc1 [T0901317]

Source: US20060014231A1, “Methods and compositions to promote bone homeostasis” (priority 2004, published 2006)
